Legend:
[1] = system: ATXN3 transcripts containing exon 4 (E4E5) in SK-N-MC cells; assay: ATXN3 Quantitative Splicing Assay (qPCR, E4E5 transcripts containing exon 4); assay type: cell-based; conditions: Homo sapiens, 24 h treatment, qPCR primers/probe E4E5
Description: Human neuroblastoma SK-N-MC cells were plated in 384-well plates at 20,000 cells/well. Twenty-four hours after plating, cells were treated with compounds for 24 h at appropriate concentrations ranging from 30 μM to 0.6 nM (0.3% DMSO). Treated cells were lysed in 15 μL of lysis buffer, and cDNA was synthesized using the Fast Advanced Cells-to-Ct kit. Two μL of each cDNA was used in qPCR reactions to confirm the exon 4 skipped transcripts of ATXN3. A second set of primers/probe E4E5 was used to detect the transcripts containing exon 4. The third set of primers/probe E8E9 was used to detect total gene level of ATXN3. The qPCR reactions were prepared in 384-well plates in 10 μL volume, using TaqMan™ Fast Advanced Master Mix with primers and probes shown in the table below. Reactions were run in a Quant Studio 6 qPCR instrument with default settings.
The primers and probes are listed below in Table 4.
(§1) Compounds were tested as outlined in Examples 2 and 3 above and the results are shown below in Table 5.

[2] = system: total ATXN3 protein levels in SK-N-MC cells; assay: ATXN3 Total Protein Assay (MSD); assay type: cell-based; conditions: Homo sapiens, 48 hours incubation
Description: Human neuroblastoma SK-N-MC cells were seeded at 10,000 cells/well in 384 well plates one day prior to compound treatment. The concentrations of compounds were tested at appropriate doses ranging from 30 μM to 0.6 nM. After incubation for 48 hours, the cells were lysed with 25 μL of lysis buffer containing protease inhibitors, and total ATXN3 protein levels were assessed by Mesoscale Discovery (MSD) assay developed with one pair of anti-ATXN3 antibodies. The capture and detect antibodies were raised in mouse and rabbit respectively. Anti-rabbit MSD-ST antibody was used for secondary antibody.
ATXN3 recombinant protein was used for standards. The readouts were captured with 35 μL of MSD read buffer and multi-array 384-well high binding plates.
as §1

Compound | IC50 [1] [µM] | IC50 [2] [µM]
Cc1c(C[C@H](C)N)sc2c(NCc3ccncc3)cnnc12 [Compound 1, 6-[(2S)-2-aminopropyl]-7-methyl-N-[(pyridin-4-yl)methyl]thieno[3,2-c]pyridazin-4-amine] | 5 to 10 | 5 to 10
Cc1c(C[C@@H](N)CO)sc2c(NCc3ccncc3)cnnc12 [Compound 3, (2R)-2-amino-3-(7-methyl-4-{[(pyridin-4-yl)methyl]amino}thieno[3,2-c]pyridazin-6-yl)propan-1-ol] | 5 to 10 | 10 to 40
Cc1c(C[C@H](C)N)sc2c(NCc3ccncc3F)cnnc12 [Compound 4, 6-[(2S)-2-aminopropyl]-N-[(3-fluoropyridin-4-yl)methyl]-7-methylthieno[3,2-c]pyridazin-4-amine] | 5 to 10 | 10 to 40
Cc1c(C[C@@H](N)CO)sc2c(NCc3ccncc3F)cnnc12 [Compound 5, (2R)-2-amino-3-(4-{[(3-fluoropyridin-4-yl)methyl]amino}-7-methylthieno[3,2-c]pyridazin-6-yl)propan-1-ol] | 5 to 10 | 10 to 40
Cc1c(C[C@H](C)N)sc2c(NCc3ccccc3F)cnnc12 [Compound 6, 6-[(2S)-2-aminopropyl]-N-[(2-fluorophenyl)methyl]-7-methylthieno[3,2-c]pyridazin-4-amine] | 0.501 to 5 | 5 to 10
Cc1c(C[C@@H](N)CO)sc2c(NCc3ccccc3F)cnnc12 [Compound 7, (2R)-2-amino-3-(4-{[(2-fluorophenyl)methyl]amino}-7-methylthieno[3,2-c]pyridazin-6-yl)propan-1-ol] | 10 to 40 | 10 to 40
C[C@H](N)Cc1sc2c(NCc3ccncc3)cnnc2c1Cl [Compound 8, 6-[(2S)-2-aminopropyl]-7-chloro-N-[(pyridin-4-yl)methyl]thieno[3,2-c]pyridazin-4-amine] | 10 to 40 | 10 to 40
CC[C@H](N)Cc1sc2c(NCc3ccncc3)cnnc2c1C [Compound 10, 6-[(2S)-2-aminobutyl]-7-methyl-N-[(pyridin-4-yl)methyl]thieno[3,2-c]pyridazin-4-amine] | 10 to 40 | 10 to 40
Cc1c(C[C@@H](N)CCO)sc2c(NCc3ccncc3)cnnc12 [Compound 11, (3S)-3-amino-4-(7-methyl-4-{[(pyridin-4-yl)methyl]amino}thieno[3,2-c]pyridazin-6-yl)butan-1-ol] | 10 to 40 | 10 to 40
C[C@H](N)Cc1sc2c(NCc3ccncc3)cnnc2c1Br [Compound 20, 6-[(2S)-2-aminopropyl]-7-bromo-N-[(pyridin-4-yl)methyl]thieno[3,2-c]pyridazin-4-amine] | 5 to 10 | 10 to 40
Cc1c(C[C@H](C)N)sc2c(NCc3ccncn3)cnnc12 [Compound 22, 6-[(2S)-2-aminopropyl]-7-methyl-N-[(pyrimidin-4-yl)methyl]thieno[3,2-c]pyridazin-4-amine] | 10 to 40 | 10 to 40
Cc1c(C[C@@H](N)CO)sc2c(NCc3ccncn3)cnnc12 [Compound 23, (2R)-2-amino-3-(7-methyl-4-{[(pyrimidin-4-yl)methyl]amino}thieno[3,2-c]pyridazin-6-yl)propan-1-ol] | 10 to 40 | 10 to 40
c1cc(CNc2cnnc3ccsc23)ccn1 [Compound 33, N-[(pyridin-4-yl)methyl]thieno[3,2-c]pyridazin-4-amine] | 10 to 40 | 10 to 40
Cc1csc2c(NCc3ccncn3)cnnc12 [Compound 34, 7-methyl-N-[(pyrimidin-4-yl)methyl]thieno[3,2-c]pyridazin-4-amine] | 10 to 40 | 10 to 40
Cc1csc2c(NCc3ccncc3F)cnnc12 [Compound 35, N-[(3-fluoropyridin-4-yl)methyl]-7-methylthieno[3,2-c]pyridazin-4-amine] | 10 to 40 | 10 to 40
Cc1csc2c(NCc3ccccc3F)cnnc12 [Compound 36, N-[(2-fluorophenyl)methyl]-7-methylthieno[3,2-c]pyridazin-4-amine] | 10 to 40 | 10 to 40
Cc1c(C[C@H](C)N)sc2c(NCc3ccccc3)cnnc12 [Compound 37, 6-[(2S)-2-aminopropyl]-N-benzyl-7-methylthieno[3,2-c]pyridazin-4-amine] | 0.501 to 5 | 0.501 to 5
Clc1csc2c(NCc3ccncc3)cnnc12 [Compound 38, 7-chloro-N-[(pyridin-4-yl)methyl]thieno[3,2-c]pyridazin-4-amine] | 10 to 40 | 10 to 40
Cc1c(C[C@@H](N)CO)sc2c(NCc3ccccc3)cnnc12 [Compound 39, (2R)-2-amino-3-[4-(benzylamino)-7-methylthieno[3,2-c]pyridazin-6-yl]propan-1-ol] | 0.501 to 5 | 0.501 to 5
C[C@H](N)Cc1cc2nnc(Br)c(NCc3ccccc3)c2s1 [Compound 40, 6-[(2S)-2-aminopropyl]-N-benzyl-3-bromothieno[3,2-c]pyridazin-4-amine] | 10 to 40 | 10 to 40
Brc1csc2c(NCc3ccncc3)cnnc12 [Compound 41, 7-bromo-N-[(pyridin-4-yl)methyl]thieno[3,2-c]pyridazin-4-amine] | 0.101 to 0.5 | 10 to 40
Cc1c(C[C@@H](N)CCO)sc2c(NCc3ccccc3)cnnc12 [Compound 42, (3S)-3-amino-4-[4-(benzylamino)-7-methylthieno[3,2-c]pyridazin-6-yl]butan-1-ol] | 5 to 10 | 0.501 to 5

From patent publication US20250340564A1, “COMPOSITIONS USEFUL FOR MODULATING SPLICING” (SKYHAWK THERAPEUTICS, INC., priority 2021, published 2025)
